In PMC11783063, “Design, synthesis, and apoptotic antiproliferative action of new benzimidazole/1,2,3-triazole hybrids as EGFR inhibitors” (Frontiers in Chemistry, 2025):

How the values were obtained:
[1] = target: EGFR (Homo sapiens, UniProt P00533); design: method as in Ihmaid et al., 2021; details: ref Ihmaid et al., 2021; read-out: EGFR inhibition IC50; cited from earlier work
[2] = tested on: leukemia subpanel of 60 human carcinoma cell lines; design: method as in Youssif et al., 2024; details: NCI five-dose, ref Youssif et al., 2024; cited from earlier work
[3] = tested on: caspase-3; test: Caspase-3 activation assay in MCF-7 cells; format: cell-based, human; details: vs untreated control
Text: (§1) Cells experience apoptosis in reaction to specific signaling cues, resulting in significant modifications. […] They decompose vital cellular components, including nuclear proteins, such as DNA repair enzymes and structural proteins within the cytoskeleton, essential for optimal cellular function.
(§2) Supplementary Appendix A provides more details.
Allow all reagents to reach room temperature before use. Gently mix all liquid reagents prior to use. Determine the number of 8-well strips needed for the assay. Insert these in the frame(s) for current use. Add 100 μl of the Standard Diluent Buffer to the zero standard wells. Well(s) reserved for chromogen blank should be left empty. Add 100 μl of standards and controls or diluted samples to the appropriate microtiter wells. The sample dilution chosen should be optimized for each experimental system. Tap gently on the side of plate to mix. Cover wells with plate cover and incubate for 2 hours at room temperature. Thoroughly aspirate or decant solution from wells and discard the liquid, Wash wells 4 times. […] Tap gently on the side of the plate to mix. Cover plate with plate cover and incubate for 1 hour at room temperature. Thoroughly aspirate or decant solution from wells and discard the liquid, Wash wells 4 times. Add 100 μl Anti-Rabbit IgG HRP Working Solution to each well except the chromogen blank(s). Prepare the working dilution as described in Preparing IgG HRP. Cover wells with the plate cover and incubate for 30 minutes at room temperature. Thoroughly aspirate or decant solution from wells and discard the liquid. Wash wells 4 times. Add 100 μl of Stabilized Chromogen to each well. The liquid in the wells will begin to turn blue. Incubate for 30 minutes at room temperature and in the dark. The incubation time for chromogen substrate is often determined by the microtiter plate reader used. […] The O.D. values should be monitored, and the substrate reaction stopped before the O.D. of the positive wells exceeds the limits of the instrument. The O.D. values at 450 nm can only be read after the Stop Solution has been added to each well. […] Add 100 μl of Stop Solution to each well. Tap side of plate gently to mix. The solution in the wells should change from blue to yellow. Read the absorbance of each well at 450 nm having blanked the plate reader against a chromogen blank composed of 100 μl each of Stabilized Chromogen and Stop Solution. Read the plate within 2 hours after adding the Stop Solution. Use a curve fitting software to generate the standard curve. […] Read the concentrations for unknown samples and controls from the standard curve. Multiply value(s) obtained for sample(s) by the appropriate dilution factor to correct for the dilution in step 3.

[4] = tested on: caspase-8; test: Caspase-8 activation assay in MCF-7 cells; format: cell-based, human
Experimental: as §1, §2
The absorbance of each microwell was read on a spectrophotometer at 450 nm. A standard curve is prepared from 7human Caspase-8 standard dilutions and human Caspase-8 concentration determined.

[5] = tested on: Bax; test: Bax activation assay in MCF-7 cells; format: cell-based, human
Experimental: (§3) The current study supplied compounds 6i and 10e to breast (MCF-7) cancer cell lines at their respective IC50 values. This led to a notable elevation of pro-apoptotic Bax expression, with a fold increase of 34 for compound 6i and 36 for compound 10e.
(§4) Compounds 6i and 10e were assessed for their ability to activate caspase-3, caspase-8, and Bax, as well as to downregulate the anti-apoptotic protein Bcl2 in the MCF-7 breast cancer cell line ([Abdelbaset et al., 2019]). Supplementary Appendix A provides more details.
Bring all reagents, except the human Bax-α Standard, to room temperature for at least 30 minutes prior to opening. The human Bax-α Standard solution should not be left at room temperature for more than 10 minutes. All standards, controls and samples should be run in duplicate. Refer to the Assay Layout Sheet to determine the number of wells to be used and put any remaining wells with the desiccant back into the pouch and seal the ziploc. Store unused wells at 4 °C. Pipet 100 μL of Assay Buffer into the S0 (0 pg/mL standard) wells. Pipet 100 μL of Standards #1 through #6 into the appropriate wells. Pipet 100 μL of the Samples into the appropriate wells. Tap the plate gently to mix the contents. Seal the plate and incubate at room temperature on a plate shaker for 1 hour at ~500 rpm. Empty the contents of the wells and wash by adding 400 μL of wash solution to every well. Repeat the wash 4 more times for a total of 5 washes. After the final wash, empty or aspirate the wells and firmly tap the plate on a lint free paper towel to remove any remaining wash buffer. Pipet 100 μL of yellow Antibody into each well, except the Blank. Seal the plate and incubate at room temperature on a plate shaker for 1 hour at ~500 rpm. Empty the contents of the wells and wash by adding 400 μL of wash solution to every well. Repeat the wash 4 more times for a total of 5 washes. After the final wash, empty or aspirate the wells and firmly tap the plate on a lint free paper towel to remove any remaining wash buffer. Add 100 μL of blue Conjugate to each well, except the Blank. Seal the plate and incubate at room temperature on a plate shaker for 30 minutes at ~500 rpm. Empty the contents of the wells and wash by adding 400 μL of wash solution to every well. Repeat the wash 4 more times for a total of 5 washes. After the final wash, empty or aspirate the wells and firmly tap the plate on a lint free paper towel to remove any remaining wash buffer. Pipet 100 μL of Substrate Solution into each well. Incubate for 30 minutes at room temperature on a plate shaker at ~500 rpm. Pipet 100 μL Stop Solution to each well. Blank the plate reader against the Blank wells, read the optical density at 450 nm. Calculate the average net Optical Density (OD) bound for each standard and sample by subtracting the average Blank OD from the average OD for each standard and sample. Using linear graph paper, plot the Average Net OD for each standard versus Bax concentration in each standard. Approximate a straight line through the points. The concentration of Bax in the unknowns can be determined by interpolation.

[6] = tested on: Bcl-2; test: Bcl-2 inhibition assay in MCF-7 cells; format: cell-based, human
Experimental: as §3, §4
Mix all the reagents thoroughly without foaming before use. Wash the microwells twice with approximately 300 μL Wash Buffer per well with thorough aspiration of microwell contents between washes. Take caution not to scratch the surface of the microwells. After the last wash, empty the wells and tap microwell strips on an absorbent pad or paper towel to remove excess Wash Buffer. Use the microwell strips immediately after washing or place upside down on a wet absorbent paper for not longer than 15 minutes. […] Add 100 μL of Sample Diluent in duplicate to all standard wells and to the blank wells. Prepare standard (1:2 dilution) in duplicate ranging from 32 ng/mL to 0.5 ng/mL. Add 100 μL of Sample Diluent, in duplicate, to the blank wells. Add 80 μL of Sample Diluent, in duplicate, to the sample wells. Add 20 μL of each Sample, in duplicate, to the designated wells. Add 50 μL of diluted biotin-conjugate to all wells, including the blank wells. Cover with a plate cover and incubate at room temperature, on a microplate shaker at 100 rpm if available, for 2 hours. Remove plate cover and empty the wells. Wash microwell strips 3 times as described in step 2. Add 100 μL of diluted Streptavidin-HRP to all wells, including the blank wells. Cover with a plate cover and incubate at room temperature, on a microplate shaker at 100 rpm if available, for 1 hour. Remove the plate cover and empty the wells. Wash microwell strips 3 times as described in step 2. Proceed to the next step. Pipette 100 μl of mixed TMB Substrate Solution to all wells, including the blanks. Incubate the microwell strips at room temperature (18° to 25°C) for about 15 minutes, if available on a rotator set at 100 rpm. Avoid direct exposure to intense light. The point, at which the substrate reaction is stopped, is often determined by the ELISA reader. Many ELISA readers record absorbance only up to 2.0 O.D. Therefore, the color development within individual microwells must be watched by the person running the assay and the substrate reaction stopped before positive wells are no longer properly detectable. Stop the enzyme reaction by quickly pipetting 100 μL of Stop Solution into each well, including the blank wells. It is important that the Stop Solution is spread quickly and uniformly throughout the microwells to completely inactivate the enzyme. Results must be read immediately after the Stop Solution is added or within one hour if the microwell strips are stored at 2 - 8°C in the dark. Read the absorbance of each microwell on a spectrophotometer using 450 nm as the primary wavelength.

Sequence of EGFR (P00533 669-1210): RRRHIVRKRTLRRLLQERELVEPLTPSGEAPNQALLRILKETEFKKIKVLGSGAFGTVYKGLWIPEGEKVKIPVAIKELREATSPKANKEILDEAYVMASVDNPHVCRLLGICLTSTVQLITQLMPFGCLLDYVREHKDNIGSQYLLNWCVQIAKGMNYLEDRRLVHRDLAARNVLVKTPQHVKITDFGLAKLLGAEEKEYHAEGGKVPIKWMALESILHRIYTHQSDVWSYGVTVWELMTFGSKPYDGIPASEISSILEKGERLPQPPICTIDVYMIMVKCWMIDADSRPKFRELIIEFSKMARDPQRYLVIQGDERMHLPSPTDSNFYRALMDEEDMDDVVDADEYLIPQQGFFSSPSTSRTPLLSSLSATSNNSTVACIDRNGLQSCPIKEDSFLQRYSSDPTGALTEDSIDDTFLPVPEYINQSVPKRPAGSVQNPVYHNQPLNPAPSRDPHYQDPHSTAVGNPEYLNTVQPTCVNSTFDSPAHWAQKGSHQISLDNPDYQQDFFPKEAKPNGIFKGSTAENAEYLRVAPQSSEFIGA

Cc1ccc(NC(=O)Cn2cc(CN3C(=O)c4cc(Cl)c(Cl)cc4C3=O)nn2)cc1F [III]
IC50 [1]: 0.079 µM

O=C(N/N=C/c1ccc([N+](=O)[O-])cc1)c1ccc2[nH]c(-c3ccc(Cl)cc3)nc2c1 [I]
Selectivity ratio towards the leukemia subpanel at the GI50 level [2]: 5.96

CN[C@@H]1C[C@H]2O[C@@](C)([C@@H]1OC)n1c3ccccc3c3c4c(c5c6ccccc6n2c5c31)C(=O)NC4 [Staurosporine, reference compound]
Caspase-3 Fold change [3]: 7
Caspase-8 Conc ([4]; compound at its IC50 concentration): 1.50 ± 0.10 ng/mL
Caspase-8 Fold change ([4]; vs untreated control): 17
Bax Conc ([5]; compound at its IC50): 288 ± 2 pg/mL
Bax Fold change ([5]; vs untreated control): 32
Bcl-2 Conc ([6]; compound at its IC50): 1.20 ng/mL
Bcl-2 Fold reduction ([6]; vs untreated control): 4
